Results: patent US12269805B2, “Inhibitors of platelet function and methods for use of the same” (THE REGENTS OF THE UNIVERSITY OF MICHIGAN, priority 2018, dated 2025)
Read-outs that look alike come from different tables or passages of the source. One block for each compound: values may come before it.

Key:
platelets = conditions: cited from earlier work
thrombus formation = conditions: cited from earlier work
[1] = Pharmacokinetic study: compound concentration in mouse blood plasma after PO and IV administration; assay type: in vivo, mice; conditions: for Concentration in Plasma, Mouse 2: value marked as outlier; for concentration at 2 h / concentration at 4 h / concentration at 7 h: mouse, plasma, 30 mg/kg
Description: The blood plasma concentration of compound A3 in mice was determined following per os, oral compound administration (“PO”) and intravenous (“IV”) administration
Calibration curve. The concentration range was evaluated from 1-5000 ng/ml for compound A3. The curve was built with linear regression with weighing (1/X2). The linear regression analysis was performed by plotting the peak area ratio (y) against the concentration (x) in ng/mL.
Instrument Conditions. The LC-MS and mass spectrometry conditions for the compounds tested are shown below.
Results. The individual and average compound A3 concentration-time data for IV and PO dosed groups are listed in Table 1, and graphically presented in FIG. 1.

[2] = tested on: phospho-VASP (serine 157) in washed human platelets; test: Vasodilator-stimulated phosphoprotein phosphorylation in human platelets (Western blot); assay type: cell-based; conditions: washed human platelets treated for one minute; 5 nm to 20 μM tested
Description: Citrated whole blood was centrifuged (200 g for 10 min) to isolate platelet-rich plasma. Platelet-rich plasma was treated with acid citrate dextrose (2.5% sodium citrate, 1.5% citric acid, 2.0% D-glucose) and apyrase (0.02 U/mL), and then centrifuged (2000 g for 10 mins) to pellet the platelets. Platelets were resuspended at 3.0×10^8 platelets/mL in Tyrode's buffer (10 mM HEPES, 12 mM NaHCO3, 127 mM NaCl, 5 mM KCl, 0.5 mM NaH2PO4, 1 mM MgCl2, and 5 mM glucose) unless otherwise stated.
Washed platelets were treated with forskolin (0.5 μM), 12-HETre (20 μM), or compound A3 (5 nm, 10 nm, 25 nm, 50 nm, 100 n, 250 nm, 1 μM, 5 μM, 10 μM, and 20 μM) for one minute, then directly lysed in 5× Laemmli sample buffer (1.5 M Tris-HCl, pH 6.8, glycerol, 5% β-mercaptoethanol, 10% sodium dodecyl sulfate (SDS), and 1% bromophenol blue). The samples were boiled for five minutes and then run on a 10% SDS-PAGE gel. The levels of total and phospho-VASP (serine 157) were quantified by Western Blot using an Odyssey imaging system (LI-CoR). […] Compound A3 induced VASP phosphorylation at a concentration as low as 10 nm.

SMILES: CCCCC/C=C\C/C=C\C/C=C\CCCCCCC(=O)O [DGLA, Dihomo-γ-linolenic acid]
Platelet aggregation ex vivo (platelets): inhibit platelet aggregation ex vivo
Thrombus formation (thrombus formation; 12-LOX−/− mice): unable to inhibit thrombus formation
Platelet thrombus formation in vivo (thrombus formation; following an insult to the vessel wall): inhibited platelet thrombus formation in vivo

Concentration in Plasma, Mouse 2 ([1]; PO 30 mg/kg, 2 h): *809.0 ng/ml
Concentration in Plasma, Mouse 2 ([1]; PO 30 mg/kg, 4 h): *812.7 ng/ml
concentration at 2 h ([1]; iv, IV 30 mg/kg, 2 h, n=3, read-out: Concentration in Plasma, Mean): 164 ng/mL
concentration at 2 h ([1]; iv, IV 30 mg/kg, 2 h, read-out: Concentration in Plasma, Mouse 1): 203 ng/mL
concentration at 2 h ([1]; iv, IV 30 mg/kg, 2 h, read-out: Concentration in Plasma, Mouse 2): 158 ng/mL
concentration at 2 h ([1]; iv, IV 30 mg/kg, 2 h, read-out: Concentration in Plasma, Mouse 3): 131 ng/mL
concentration at 4 h ([1]; iv, IV 30 mg/kg, 4 h, n=3, read-out: Concentration in Plasma, Mean): 106 ng/mL
concentration at 4 h ([1]; iv, IV 30 mg/kg, 4 h, read-out: Concentration in Plasma, Mouse 1): 135 ng/mL
concentration at 4 h ([1]; iv, IV 30 mg/kg, 4 h, read-out: Concentration in Plasma, Mouse 2): 80.3 ng/mL
concentration at 4 h ([1]; iv, IV 30 mg/kg, 4 h, read-out: Concentration in Plasma, Mouse 3): 102 ng/mL
concentration at 7 h ([1]; iv, IV 30 mg/kg, n=3, read-out: Concentration in Plasma, Mean): 97.6 ng/mL
concentration at 7 h ([1]; iv, IV 30 mg/kg, read-out: Concentration in Plasma, Mouse 1): 123 ng/mL
concentration at 7 h ([1]; iv, IV 30 mg/kg, read-out: Concentration in Plasma, Mouse 2): 76.9 ng/mL
concentration at 7 h ([1]; iv, IV 30 mg/kg, read-out: Concentration in Plasma, Mouse 3): 92.7 ng/mL
concentration at 2 h ([1]; po, PO 30 mg/kg, 2 h, outlier left out, read-out: Concentration in Plasma, Mean): 119 ng/mL
concentration at 2 h ([1]; po, PO 30 mg/kg, 2 h, read-out: Concentration in Plasma, Mouse 1): 186 ng/mL
concentration at 2 h ([1]; po, PO 30 mg/kg, 2 h, read-out: Concentration in Plasma, Mouse 3): 52.5 ng/mL
concentration at 4 h ([1]; po, PO 30 mg/kg, 4 h, outlier left out, read-out: Concentration in Plasma, Mean): 34.5 ng/mL
concentration at 4 h ([1]; po, PO 30 mg/kg, 4 h, read-out: Concentration in Plasma, Mouse 1): 46.5 ng/mL
concentration at 4 h ([1]; po, PO 30 mg/kg, 4 h, read-out: Concentration in Plasma, Mouse 3): 22.5 ng/mL
concentration at 7 h ([1]; po, PO 30 mg/kg, n=3, read-out: Concentration in Plasma, Mean): 28.3 ng/mL
concentration at 7 h ([1]; po, PO 30 mg/kg, read-out: Concentration in Plasma, Mouse 1): 46.3 ng/mL
concentration at 7 h ([1]; po, PO 30 mg/kg, read-out: Concentration in Plasma, Mouse 2): 19.1 ng/mL
concentration at 7 h ([1]; po, PO 30 mg/kg, read-out: Concentration in Plasma, Mouse 3): 19.3 ng/mL
SMILES: CC(C)N(CCCCSc1n[nH]c(=O)[nH]1)c1cnc(-c2ccccc2)c(-c2ccccc2)n1 [Compound A3, 5-((4-((5,6-diphenylpyrazin-2-yl)(isopropyl)amino)butyl)thio)-2,4-dihydro-3H-1,2,4-triazol-3-one]
Lowest concentration that induced VASP phosphorylation [2]: 10 nm

SMILES: CCCCC/C=C\C[C@H](O)/C=C/C=C\CCCCCCC(=O)O [Compound 12-HETrE, 12(S)-hydroxyeicosatetrienoic acid]
Thrombus formation following vessel injury (thrombus formation; irrespective of 12-LOX expression): potently impaired thrombus formation
